Data on 15 compounds can be found in ChEMBL document CHEMBL5390231, “Development of small molecule inhibitors targeting RNA helicase DHX33 as anti-cancer agents” (Bioorg Med Chem Lett, 2023).

The subject of one series is U-251. As to the kind of experiment: Antiproliferative activity against human U-251MG cells overexpressing DHX33 assessed as inhibition of cell growth measured after 48 hrs by CCK-8 assay. The class given is functional, cell-based. The following applies: U-251, 48 h. A general note: Formazan colour is commonly taken as a measure of viable cells.
Series [1] is described as follows: Microsomal stability in human liver microsome assessed as intrinsic clearance. The class given is ADME. The settings on record: liver microsomes, read-out: CLH. On the technique in general: Microsomes from liver hold many membrane-bound enzymes, among them those of drug oxidation.
Series [2] concerns A549. Kind of series: Downregulation of CyclinB2 mRNA expression in human A549 cells by SYBR dye based RT-PCR analysis. In kind it is functional, cell-based.
Series [3] concerns A549. Kind of series: Downregulation of FEN1 mRNA expression in human A549 cells by SYBR dye based RT-PCR analysis. The class given is functional, cell-based.
Series [4] concerns A549. As to the kind of experiment: Downregulation of MCM4 mRNA expression in human A549 cells by SYBR dye based RT-PCR analysis. The class given is functional, cell-based.
Series [5] has as its system A549. As to the kind of experiment: Downregulation of MCM3 mRNA expression in human A549 cells by SYBR dye based RT-PCR analysis. The class given is functional, cell-based.
In series [6] the test system is A549. As to the kind of experiment: Downregulation of MCM7 mRNA expression in human A549 cells by SYBR dye based RT-PCR analysis. The class given is functional, cell-based.
In series [7] the test system is A549. As to the kind of experiment: Downregulation of CyclinE2 mRNA expression in human A549 cells by SYBR dye based RT-PCR analysis. The class given is functional, cell-based.
Series [8] has as its system A549. As to the kind of experiment: Downregulation of MCM2 mRNA expression in human A549 cells by SYBR dye based RT-PCR analysis. In kind it is functional, cell-based.
Series [9] concerns the target T1, Probable ATP-dependent RNA helicase DDX59 (Homo sapiens, UniProt Q5T1V6).
T1 sequence (Q5T1V6 whole entry): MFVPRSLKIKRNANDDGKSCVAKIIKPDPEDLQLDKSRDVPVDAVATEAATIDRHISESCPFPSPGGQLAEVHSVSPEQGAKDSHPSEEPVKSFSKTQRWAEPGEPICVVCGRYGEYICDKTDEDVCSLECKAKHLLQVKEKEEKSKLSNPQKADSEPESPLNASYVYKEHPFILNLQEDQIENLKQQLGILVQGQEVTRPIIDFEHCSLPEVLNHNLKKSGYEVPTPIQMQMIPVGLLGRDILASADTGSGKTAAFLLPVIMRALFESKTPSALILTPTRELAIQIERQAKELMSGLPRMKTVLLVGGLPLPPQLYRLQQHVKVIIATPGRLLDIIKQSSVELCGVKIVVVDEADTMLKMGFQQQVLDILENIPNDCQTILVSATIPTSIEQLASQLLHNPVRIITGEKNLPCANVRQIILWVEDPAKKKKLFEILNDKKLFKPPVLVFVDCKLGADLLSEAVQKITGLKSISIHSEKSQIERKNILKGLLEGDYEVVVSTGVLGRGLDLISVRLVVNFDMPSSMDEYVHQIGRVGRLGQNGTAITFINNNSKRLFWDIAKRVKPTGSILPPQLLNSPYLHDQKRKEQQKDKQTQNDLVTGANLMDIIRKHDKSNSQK
As to the kind of experiment: Inhibition of C-terminal 6xHis-tagged human recombinant DDX59 transformed in Escherichia coli BL21(DE3)pLysS cells.

Series [10] concerns the target T2, Putative pre-mRNA-splicing factor ATP-dependent RNA helicase DHX32 (Homo sapiens, UniProt Q7L7V1).
T2 sequence (Q7L7V1 whole entry): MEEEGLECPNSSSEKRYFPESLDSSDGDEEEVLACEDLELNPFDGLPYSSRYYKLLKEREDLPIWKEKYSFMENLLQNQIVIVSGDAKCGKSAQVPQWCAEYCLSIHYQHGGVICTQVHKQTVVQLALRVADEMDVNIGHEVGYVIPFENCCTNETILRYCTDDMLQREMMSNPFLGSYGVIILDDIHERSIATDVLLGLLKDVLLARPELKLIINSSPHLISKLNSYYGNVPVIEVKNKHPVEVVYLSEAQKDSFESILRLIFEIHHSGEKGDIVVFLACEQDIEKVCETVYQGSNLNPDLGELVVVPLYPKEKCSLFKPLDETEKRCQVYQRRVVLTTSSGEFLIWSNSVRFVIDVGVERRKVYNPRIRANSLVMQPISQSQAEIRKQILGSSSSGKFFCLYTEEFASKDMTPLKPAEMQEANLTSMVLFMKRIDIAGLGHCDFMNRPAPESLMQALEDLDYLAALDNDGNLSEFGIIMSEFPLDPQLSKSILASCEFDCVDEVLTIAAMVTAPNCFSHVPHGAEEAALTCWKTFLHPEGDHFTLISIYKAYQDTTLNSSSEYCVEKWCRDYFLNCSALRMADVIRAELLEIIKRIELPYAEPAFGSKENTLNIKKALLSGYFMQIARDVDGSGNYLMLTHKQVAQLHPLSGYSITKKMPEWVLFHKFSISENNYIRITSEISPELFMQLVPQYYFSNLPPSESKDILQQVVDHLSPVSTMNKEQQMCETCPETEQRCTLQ
Kind of series: Inhibition of N-terminal thioredoxin-tagged human recombinant DHX32 transformed in Escherichia coli BL21(DE3)pLysS cells.

The target in series [11] is T3, ATP-dependent RNA helicase DHX33 (Mus musculus, UniProt Q80VY9).
T3 sequence (Q80VY9 whole entry): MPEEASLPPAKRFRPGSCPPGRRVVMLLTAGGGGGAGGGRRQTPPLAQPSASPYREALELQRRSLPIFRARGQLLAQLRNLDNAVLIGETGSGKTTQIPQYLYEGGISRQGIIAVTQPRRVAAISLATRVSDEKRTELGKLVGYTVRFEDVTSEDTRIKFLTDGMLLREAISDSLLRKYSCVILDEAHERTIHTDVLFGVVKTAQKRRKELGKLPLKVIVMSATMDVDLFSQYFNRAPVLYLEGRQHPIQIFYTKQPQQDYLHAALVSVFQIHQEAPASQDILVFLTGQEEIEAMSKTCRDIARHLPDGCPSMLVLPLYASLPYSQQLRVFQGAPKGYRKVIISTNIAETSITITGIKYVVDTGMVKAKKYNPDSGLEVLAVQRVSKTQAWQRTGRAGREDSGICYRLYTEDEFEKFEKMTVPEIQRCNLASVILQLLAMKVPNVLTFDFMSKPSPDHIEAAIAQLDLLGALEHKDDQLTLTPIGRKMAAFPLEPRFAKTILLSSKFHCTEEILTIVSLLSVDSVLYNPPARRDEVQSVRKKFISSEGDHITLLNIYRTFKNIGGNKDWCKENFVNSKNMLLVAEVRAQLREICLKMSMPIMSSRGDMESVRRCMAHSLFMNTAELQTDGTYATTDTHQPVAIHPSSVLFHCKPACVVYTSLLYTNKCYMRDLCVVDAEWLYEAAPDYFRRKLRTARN
As to the kind of experiment: Inhibition of N-terminal/C-terminal 6x His-tagged wild type recombinant mouse DHX33 transformed in Escherichia coli BL21(DE3)pLysS cells.

The target of series [12] is T4, Probable ATP-dependent RNA helicase DDX6 (Homo sapiens, UniProt P26196).
T4 sequence (P26196 whole entry): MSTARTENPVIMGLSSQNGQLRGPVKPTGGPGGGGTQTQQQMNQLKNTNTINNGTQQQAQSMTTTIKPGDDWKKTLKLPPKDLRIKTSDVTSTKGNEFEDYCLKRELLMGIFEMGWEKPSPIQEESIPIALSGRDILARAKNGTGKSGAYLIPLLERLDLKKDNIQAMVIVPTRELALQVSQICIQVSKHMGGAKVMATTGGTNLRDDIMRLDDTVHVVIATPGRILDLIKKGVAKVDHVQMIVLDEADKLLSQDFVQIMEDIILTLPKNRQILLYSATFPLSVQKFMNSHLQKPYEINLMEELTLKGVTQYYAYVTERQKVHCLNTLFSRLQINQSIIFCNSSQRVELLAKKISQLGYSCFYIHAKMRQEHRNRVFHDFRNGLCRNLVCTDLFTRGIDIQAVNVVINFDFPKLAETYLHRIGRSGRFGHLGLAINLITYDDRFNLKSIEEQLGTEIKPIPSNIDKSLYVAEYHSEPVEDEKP
As to the kind of experiment: Inhibition of N-terminal thioredoxin-tagged human recombinant DDX6 transformed in Escherichia coli BL21(DE3)pLysS cells.

Series [13] relates to A549. As to the kind of experiment: Downregulation of E2F1 mRNA expression in human A549 cells by SYBR dye based RT-PCR analysis. In kind it is functional, cell-based.

Activity calls are given as the source filed them. The calls are words filed in the database; no cut-off is given here.

In the case of `Cc1ccc2nc(/C(C#N)=C/c3cc(C)n(-c4oc(C)c(C)c4C#N)c3C)[nH]c2c1`, the 50% inhibitory concentration (IC50) (commonly the concentration at which inhibition is half-maximal) with U-251 was 2440 nM.

`Cc1oc(-n2c(C)cc(/C=C(\C#N)c3nc4ccc(F)cc4[nH]3)c2C)c(C#N)c1C`: the IC50 in the series on U-251 came out at 3200 nM.

Turning to `COc1cc2nc(/C(C#N)=C/c3cc(C)n(-c4sc(C)cc4C(N)=O)c3C)[nH]c2cn1`, the half-inhibitory concentration (IC50) in the series on U-251 is 180 nM. The CLint scaled in [1] worked out at 140 mL/min/kg.

For the compound `COc1ccc2nc(/C(C#N)=C/c3cc(C)n(-c4sc(C)cc4C#N)c3C)[nH]c2c1`, the IC50 in the series on U-251 amounted to 110 nM. Besides, the CLint scaled in series [1] turned out to be 290 mL/min/kg.

With `COc1nccc2nc(/C(C#N)=C/c3cc(C)n(-c4sc(C)c(C)c4C#N)c3C)[nH]c12`, in the series with U-251, the IC50 is 3970 nM.

With `COc1ccc2nc(NC(=O)c3cc(C)n(-c4oc(C)nc4C#N)c3C)[nH]c2c1`, the IC50 in the series with U-251 was found to be 70 nM.

As to `COc1cc2nc(/C(C#N)=C/c3cc(C)n(-c4sc(C)c(C)c4C#N)c3C)[nH]c2cn1`, the IC50 in the series on U-251 was 30 nM.

`COc1cc2nc(/C(C#N)=C/c3cc(C)n(-c4oc(C)c(C)c4C#N)c3C)[nH]c2cn1`: the IC50 in the series on U-251 is 70 nM.

As for `COc1cccc2nc(/C(C#N)=C/c3cc(C)n(-c4oc(C)c(C)c4C#N)c3C)[nH]c12`, the IC50 in the series with U-251 is above 10000 nM.

Turning to `COc1ccc2nc(/C(C#N)=C/c3cc(C)n(-c4oc(C)c(C)c4C#N)c3C)[nH]c2c1`, the IC50 in the series with U-251 was 540 nM.

Consider `COc1cc2nc(/C(C#N)=C/c3cc(C)n(-c4oc(C)c(C)c4C#N)c3C)[nH]c2cc1OC`, for which the IC50 with U-251 worked out at 1540 nM.

Regarding `COc1ccc2nc(/C(C#N)=C/c3cc(C)n(-c4oc(C)c(C)c4C#N)c3C)[nH]c2n1`, the IC50 in the series with U-251 was determined as 4080 nM.

Take `COc1cc2nc(/C(C#N)=C/c3cc(C)n(-c4sc(C)cc4C#N)c3C)[nH]c2cn1`: in the series on U-251, the IC50 came out at 20 nM. For the same compound, the CLint scaled in series [1] worked out at 187 mL/min/kg.

Take `COc1cncc2nc(/C(C#N)=C/c3cc(C)n(-c4sc(C)c(C)c4C#N)c3C)[nH]c12`: the IC50 in the series on U-251 is 4680 nM.

As for `Cc1oc(-n2c(C)cc(/C=C(\C#N)c3nc4ccccc4[nH]3)c2C)c(C#N)c1C`, the outcome in the series on A549 [2], in the series with A549 [3], with A549 [4], with A549 [5], in the series on A549 [6] and with A549 [7] was Active. Besides, the outcome in the series on A549 [8] and with A549 [13] was Active. In addition, the IC50 is 7820 nM in the series with U-251; above 5000 nM in series [9]; above 5000 nM in series [10]; 520 nM in series [11]; above 4000 nM in [12].
